Values of other authors, collected in patent US7419990B2, “Piperidine derivatives as melanocortin-4 receptor agonists” (Merck & Co., Inc., priority 2003, dated 2008).

What was measured:
erectile dysfunction = settings: for duration of effect / onset of action: after an oral dose; for share of patients with adequate response: oral
[1] = tested on: psychogenic erectile dysfunction

Cc1ccc(N(CC2=NCCN2)c2cccc(O)c2)cc1 [phentolamine]
duration of effect (erectile dysfunction): 2 h
onset of action (erectile dysfunction): 5 to 30 min
share of patients with adequate response (erectile dysfunction): 35-40%

CCCc1nn(C)c2c(=O)[nH]c(-c3cc(S(=O)(=O)N4CCN(C)CC4)ccc3OCC)nc12 [sildenafil]
duration of effect (erectile dysfunction): about 4 hours
onset of action (erectile dysfunction): 30 to 60 min
share of patients with adequate response (erectile dysfunction): about 70%

Ac-Nle-c[Asp-His-DPhe-Arg-Trp-Lys]-NH2 [MT-II]
duration of action ([1]; in vivo): approximately 2.5 hours
time to onset of erection ([1]; in vivo): 10 to 20 min
response rate ([1]; injected intramuscularly or subcutaneously): 75%
absorption into the systemic circulation ([1]; oral route): not absorbed into the systemic circulation
